In PMC5766581, “NF-κB inducing kinase is a therapeutic target for systemic lupus erythematosus” (Nature Communications, 2018):

Columns and labels:
Assay in all cases: SelectScreen kinase panel
Format in all cases: biochemical
eEF-2K = biological target: T1, eEF-2K (Homo sapiens, UniProt O00418)
T1 construct: purchased Invitrogen / ThermoFisher SelectScreen
Method: (§1) The ability of NIK to catalyze the hydrolysis of adenosine-5′-triphosphate (ATP) was monitored using the Transcreener ADP (adenosine-5′-diphosphate) assay (Bell Brook Labs, Fitchburg, WI). Purified human NIK kinase domain (a.a. 340–694) (0.5 nM) or mouse NIK kinase domain (a.a. 329–675) (1 nM) derived from a baculovirus-infected insect cell expression system was incubated with test compounds for 0.5–2 h in 50 mM HEPES buffer (pH 7.2) containing 10 mM MgCl2, 2 mM dithiothreitol, 10 μM ATP, 0.01% Triton X-100, 0.1% gamma-globulins from bovine blood, 1% dimethylsulfoxide (DMSO), 7 μg/mL ADP antibody and 5 nM ADP-MR121 633 tracer. Reactions were quenched by the addition of 20 mM EDTA and 0.01% Brij 35. The tracer bound to the antibody was displaced by the ADP generated during the NIK reaction, which caused a decrease in fluorescence polarization that was measured by laser excitation at 633 nm with a Fluorescence Correlation Spectroscopy Plus reader (Evotec AG). Equilibrium dissociation constant (Ki) values for NIK inhibitors are calculated from plots of activity vs. inhibitor concentration using Morrison’s quadratic equation that accounts for the potential of tight binding, and by also applying the conversion factor that accounted for competitive inhibition and the concentration of substrate used in the assay relative to its Michaelis constant (Km). The Ki values with hPKD1 (PKCμ) were determined using the same assay conditions as for NIK. Ki measurements for hKHS1 and hLRRK2, as well as broad kinase selectivity profiling for SMI1, were carried out by Invitrogen using their SelectScreen kinase assay panel (ThermoFisher Scientific, Madison, WI). The vendor offered two types of kinase activity assays, a peptide phosphorylation assay (Z′-LYTE) and an ADP quantitation assay (Adapta), as well as one type of kinase ATP site competitive binding assay (LanthaScreen). See vendor web site for technology and protocol details for each specific kinase assay.
(§2) The average % Inhibition of each kinase is reported (Supplementary Table 1).

EGFR = biological target: T2, EGFR (Homo sapiens, UniProt P00533)
T2 construct: purchased Invitrogen / ThermoFisher SelectScreen
Method: as §1, §2

CLK2 = biological target: T3, CLK2 (Homo sapiens, UniProt P49760)
T3 construct: purchased Invitrogen / ThermoFisher SelectScreen
Method: as §1, §2

Abl = biological target: T4, Abl (Homo sapiens, UniProt P00519)
T4 construct: purchased Invitrogen / ThermoFisher SelectScreen
Method: as §1, §2

JAK1 = biological target: T5, JAK1 (Homo sapiens, UniProt P23458)
T5 construct: purchased Invitrogen / ThermoFisher SelectScreen
Method: as §1, §2

GRK6 = biological target: T6, GRK6 (Homo sapiens, UniProt P43250)
T6 construct: purchased Invitrogen / ThermoFisher SelectScreen
Method: as §1, §2

SGK1 = biological target: T7, SGK1 (Homo sapiens, UniProt O00141)
T7 construct: purchased Invitrogen / ThermoFisher SelectScreen
Method: as §1, §2

EphA8 = biological target: T8, EphA8 (Homo sapiens, UniProt P29322)
T8 construct: purchased Invitrogen / ThermoFisher SelectScreen
Method: as §1, §2

PKA = biological target: T9, PKA (Homo sapiens, UniProt P17612)
T9 construct: purchased Invitrogen / ThermoFisher SelectScreen
Method: as §1, §2

Syk = biological target: T10, Syk (Homo sapiens, UniProt P43405)
T10 construct: purchased Invitrogen / ThermoFisher SelectScreen
Method: as §1, §2

MRCK_alpha = biological target: T11, MRCK_alpha (Homo sapiens, UniProt Q5VT25)
T11 construct: purchased Invitrogen / ThermoFisher SelectScreen
T11 sequence (Q5VT25 whole entry): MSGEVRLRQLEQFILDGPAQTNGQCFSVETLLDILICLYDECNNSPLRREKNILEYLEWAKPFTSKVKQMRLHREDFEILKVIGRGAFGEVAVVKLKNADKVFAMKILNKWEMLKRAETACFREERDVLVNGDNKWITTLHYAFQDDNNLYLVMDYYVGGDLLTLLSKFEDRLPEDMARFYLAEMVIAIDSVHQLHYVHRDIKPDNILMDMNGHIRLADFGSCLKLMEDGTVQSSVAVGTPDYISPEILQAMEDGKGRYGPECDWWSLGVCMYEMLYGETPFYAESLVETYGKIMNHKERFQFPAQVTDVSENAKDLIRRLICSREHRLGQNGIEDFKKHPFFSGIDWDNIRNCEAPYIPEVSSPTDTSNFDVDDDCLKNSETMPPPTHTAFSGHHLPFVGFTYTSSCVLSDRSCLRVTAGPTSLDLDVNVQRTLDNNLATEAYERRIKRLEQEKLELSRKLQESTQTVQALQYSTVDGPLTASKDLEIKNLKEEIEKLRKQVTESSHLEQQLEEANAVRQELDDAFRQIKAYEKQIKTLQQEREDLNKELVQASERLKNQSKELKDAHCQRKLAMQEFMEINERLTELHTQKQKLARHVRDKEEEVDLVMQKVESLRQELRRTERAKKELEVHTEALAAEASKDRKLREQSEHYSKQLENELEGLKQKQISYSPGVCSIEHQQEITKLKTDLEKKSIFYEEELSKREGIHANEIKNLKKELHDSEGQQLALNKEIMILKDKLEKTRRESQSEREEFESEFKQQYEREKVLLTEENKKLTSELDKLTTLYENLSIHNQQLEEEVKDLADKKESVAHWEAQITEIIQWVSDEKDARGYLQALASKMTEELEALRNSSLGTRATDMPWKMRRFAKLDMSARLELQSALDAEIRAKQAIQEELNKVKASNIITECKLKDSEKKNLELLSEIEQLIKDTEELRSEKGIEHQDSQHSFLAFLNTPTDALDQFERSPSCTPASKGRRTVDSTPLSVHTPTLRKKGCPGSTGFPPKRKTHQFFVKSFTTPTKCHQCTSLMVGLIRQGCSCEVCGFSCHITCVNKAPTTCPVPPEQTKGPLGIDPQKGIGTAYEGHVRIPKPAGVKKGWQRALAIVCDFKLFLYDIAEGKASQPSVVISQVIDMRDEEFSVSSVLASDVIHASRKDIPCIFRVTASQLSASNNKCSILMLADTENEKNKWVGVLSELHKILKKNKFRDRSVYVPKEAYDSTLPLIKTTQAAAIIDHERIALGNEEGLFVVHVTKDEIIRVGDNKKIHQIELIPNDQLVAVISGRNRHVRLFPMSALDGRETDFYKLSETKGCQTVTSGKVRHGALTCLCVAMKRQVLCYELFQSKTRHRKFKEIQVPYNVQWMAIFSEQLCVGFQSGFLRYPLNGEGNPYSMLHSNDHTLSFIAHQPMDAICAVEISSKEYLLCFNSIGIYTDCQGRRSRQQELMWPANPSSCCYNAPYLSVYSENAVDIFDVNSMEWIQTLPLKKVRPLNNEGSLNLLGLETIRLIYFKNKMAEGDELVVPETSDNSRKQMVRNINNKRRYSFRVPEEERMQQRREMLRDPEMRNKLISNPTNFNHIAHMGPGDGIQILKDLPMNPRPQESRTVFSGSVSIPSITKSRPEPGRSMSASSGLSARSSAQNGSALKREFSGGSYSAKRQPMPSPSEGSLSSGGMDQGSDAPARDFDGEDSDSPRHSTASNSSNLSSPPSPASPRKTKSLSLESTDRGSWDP
Method: as §1, §2

EphB1 = biological target: T12, EphB1 (Homo sapiens, UniProt P54762)
T12 construct: purchased Invitrogen / ThermoFisher SelectScreen
Method: as §1, §2

Rse = biological target: T13, Rse (Homo sapiens, UniProt Q06418)
T13 construct: purchased Invitrogen / ThermoFisher SelectScreen
T13 sequence (Q06418 41-890): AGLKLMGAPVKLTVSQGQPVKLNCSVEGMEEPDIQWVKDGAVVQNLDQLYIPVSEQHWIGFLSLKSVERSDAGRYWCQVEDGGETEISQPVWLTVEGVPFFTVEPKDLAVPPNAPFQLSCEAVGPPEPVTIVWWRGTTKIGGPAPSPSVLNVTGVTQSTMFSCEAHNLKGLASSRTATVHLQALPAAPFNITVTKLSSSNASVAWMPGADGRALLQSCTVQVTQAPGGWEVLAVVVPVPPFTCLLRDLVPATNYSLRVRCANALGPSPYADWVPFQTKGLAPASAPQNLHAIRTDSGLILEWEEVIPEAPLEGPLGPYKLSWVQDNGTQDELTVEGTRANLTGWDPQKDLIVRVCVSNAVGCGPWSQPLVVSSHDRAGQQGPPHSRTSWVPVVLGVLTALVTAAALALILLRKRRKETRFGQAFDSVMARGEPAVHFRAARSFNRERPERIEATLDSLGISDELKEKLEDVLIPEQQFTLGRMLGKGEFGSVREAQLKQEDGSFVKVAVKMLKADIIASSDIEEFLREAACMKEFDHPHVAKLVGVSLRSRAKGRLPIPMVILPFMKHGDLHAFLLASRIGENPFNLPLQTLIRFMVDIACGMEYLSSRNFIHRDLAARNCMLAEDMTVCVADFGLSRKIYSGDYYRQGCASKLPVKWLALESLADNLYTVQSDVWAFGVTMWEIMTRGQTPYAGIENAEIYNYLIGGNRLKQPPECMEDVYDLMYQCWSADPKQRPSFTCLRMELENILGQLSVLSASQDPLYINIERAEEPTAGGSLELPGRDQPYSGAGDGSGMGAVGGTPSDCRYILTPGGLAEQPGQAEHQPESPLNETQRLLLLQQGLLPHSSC
Method: as §1, §2

EphB3 = biological target: T14, EphB3 (Homo sapiens, UniProt P54753)
T14 construct: purchased Invitrogen / ThermoFisher SelectScreen
Method: as §1, §2

Src = biological target: T15, Src (Homo sapiens, UniProt P12931)
T15 construct: purchased Invitrogen / ThermoFisher SelectScreen
Method: as §1, §2

EphA1 = biological target: T16, EphA1 (Homo sapiens, UniProt P21709)
T16 construct: purchased Invitrogen / ThermoFisher SelectScreen
Method: as §1, §2

CLK3 = biological target: T17, CLK3 (Homo sapiens, UniProt P49761)
T17 construct: purchased Invitrogen / ThermoFisher SelectScreen
Method: as §1, §2

DCAMKL2 = biological target: T18, DCAMKL2 (Homo sapiens, UniProt Q8N568)
T18 construct: purchased Invitrogen / ThermoFisher SelectScreen
Method: as §1, §2

FGFR3 = biological target: T19, FGFR3 (Homo sapiens, UniProt P22607)
T19 construct: purchased Invitrogen / ThermoFisher SelectScreen
Method: as §1, §2

YSK1 = biological target: T20, YSK1 (Homo sapiens, UniProt O00506)
T20 construct: purchased Invitrogen / ThermoFisher SelectScreen
Method: as §1, §2

MST3 = biological target: T21, MST3 (Homo sapiens, UniProt Q9Y6E0)
T21 construct: purchased Invitrogen / ThermoFisher SelectScreen
Method: as §1, §2

IRR = biological target: T22, IRR (Homo sapiens, UniProt P14616)
T22 construct: purchased Invitrogen / ThermoFisher SelectScreen
T22 sequence (P14616 27-1297): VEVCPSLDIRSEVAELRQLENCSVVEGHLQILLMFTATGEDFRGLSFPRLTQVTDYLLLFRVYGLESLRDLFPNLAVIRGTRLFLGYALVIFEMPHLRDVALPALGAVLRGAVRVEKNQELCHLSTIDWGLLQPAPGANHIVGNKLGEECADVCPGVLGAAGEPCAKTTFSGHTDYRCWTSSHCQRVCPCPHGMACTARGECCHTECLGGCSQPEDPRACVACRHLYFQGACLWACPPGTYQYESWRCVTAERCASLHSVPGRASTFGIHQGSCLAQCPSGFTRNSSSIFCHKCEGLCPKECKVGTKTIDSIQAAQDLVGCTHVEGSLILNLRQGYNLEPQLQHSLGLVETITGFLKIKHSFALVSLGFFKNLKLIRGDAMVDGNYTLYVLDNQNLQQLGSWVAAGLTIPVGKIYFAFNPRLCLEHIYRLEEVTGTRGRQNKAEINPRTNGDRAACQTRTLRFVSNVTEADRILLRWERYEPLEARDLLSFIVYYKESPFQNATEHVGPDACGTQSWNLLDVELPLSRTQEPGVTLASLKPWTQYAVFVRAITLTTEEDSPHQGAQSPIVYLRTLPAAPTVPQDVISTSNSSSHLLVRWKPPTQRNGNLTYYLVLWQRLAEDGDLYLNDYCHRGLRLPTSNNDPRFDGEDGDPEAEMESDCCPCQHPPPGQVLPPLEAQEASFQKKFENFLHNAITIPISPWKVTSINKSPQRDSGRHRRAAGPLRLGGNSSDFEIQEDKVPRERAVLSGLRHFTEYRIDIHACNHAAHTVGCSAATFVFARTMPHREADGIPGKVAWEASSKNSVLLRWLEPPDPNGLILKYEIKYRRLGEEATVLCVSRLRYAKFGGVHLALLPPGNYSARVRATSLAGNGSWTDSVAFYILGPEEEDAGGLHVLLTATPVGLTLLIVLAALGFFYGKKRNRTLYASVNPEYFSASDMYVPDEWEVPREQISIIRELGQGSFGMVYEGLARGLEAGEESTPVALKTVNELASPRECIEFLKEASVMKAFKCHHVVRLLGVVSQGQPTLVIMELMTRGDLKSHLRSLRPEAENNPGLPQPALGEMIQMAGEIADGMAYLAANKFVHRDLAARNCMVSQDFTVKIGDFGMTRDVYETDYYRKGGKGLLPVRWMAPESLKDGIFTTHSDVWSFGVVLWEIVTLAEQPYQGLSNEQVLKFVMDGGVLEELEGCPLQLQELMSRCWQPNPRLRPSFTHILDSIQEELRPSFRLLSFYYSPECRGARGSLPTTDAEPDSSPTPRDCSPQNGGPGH
Method: as §1, §2

ErbB4 = biological target: T23, ErbB4 (Homo sapiens, UniProt Q15303)
T23 construct: purchased Invitrogen / ThermoFisher SelectScreen
Method: as §1, §2

MSSK1 = biological target: T24, MSSK1 (Homo sapiens, UniProt Q9UPE1)
T24 construct: purchased Invitrogen / ThermoFisher SelectScreen
Method: as §1, §2

CSK = biological target: T25, CSK (Homo sapiens, UniProt P41240)
T25 construct: purchased Invitrogen / ThermoFisher SelectScreen
Method: as §1, §2

PKG1_alpha = biological target: T26, PKG1_alpha (Homo sapiens, UniProt Q13976)
T26 construct: purchased Invitrogen / ThermoFisher SelectScreen
Method: as §1, §2

CaMKII_beta = biological target: T27, CaMKII_beta (Homo sapiens, UniProt Q13554)
T27 construct: purchased Invitrogen / ThermoFisher SelectScreen
Method: as §1, §2

ERK2 = biological target: T28, ERK2 (Homo sapiens, UniProt P28482)
T28 construct: purchased Invitrogen / ThermoFisher SelectScreen
Method: as §1, §2

PAK6 = biological target: T29, PAK6 (Homo sapiens, UniProt Q9NQU5)
T29 construct: purchased Invitrogen / ThermoFisher SelectScreen
T29 sequence (Q9NQU5 whole entry): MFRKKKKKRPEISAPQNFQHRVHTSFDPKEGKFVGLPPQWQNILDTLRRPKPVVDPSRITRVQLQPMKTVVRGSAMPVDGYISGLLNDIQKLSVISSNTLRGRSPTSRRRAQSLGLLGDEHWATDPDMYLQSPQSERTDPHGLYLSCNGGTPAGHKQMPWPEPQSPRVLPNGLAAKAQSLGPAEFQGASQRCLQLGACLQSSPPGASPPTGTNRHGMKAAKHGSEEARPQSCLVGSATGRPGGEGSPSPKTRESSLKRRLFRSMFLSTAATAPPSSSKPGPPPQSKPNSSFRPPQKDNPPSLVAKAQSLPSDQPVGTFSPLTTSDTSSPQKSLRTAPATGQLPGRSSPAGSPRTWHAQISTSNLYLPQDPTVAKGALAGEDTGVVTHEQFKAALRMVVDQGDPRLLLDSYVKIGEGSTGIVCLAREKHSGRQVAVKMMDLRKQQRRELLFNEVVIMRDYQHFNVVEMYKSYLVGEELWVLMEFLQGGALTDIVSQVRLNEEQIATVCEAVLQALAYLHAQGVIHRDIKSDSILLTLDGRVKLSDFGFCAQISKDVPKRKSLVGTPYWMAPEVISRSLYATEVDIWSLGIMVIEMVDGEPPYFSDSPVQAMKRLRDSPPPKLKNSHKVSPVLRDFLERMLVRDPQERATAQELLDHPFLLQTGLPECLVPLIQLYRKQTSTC
Method: as §1, §2

PKC_beta1 = biological target: T30, PKC_beta1 (Homo sapiens, UniProt P05771)
T30 construct: purchased Invitrogen / ThermoFisher SelectScreen
Method: as §1, §2

DYRK1A = biological target: T31, DYRK1A (Homo sapiens, UniProt Q13627)
T31 construct: purchased Invitrogen / ThermoFisher SelectScreen
Method: as §1, §2

TXK = biological target: T32, TXK (Homo sapiens, UniProt P42681)
T32 construct: purchased Invitrogen / ThermoFisher SelectScreen
T32 sequence (P42681 whole entry): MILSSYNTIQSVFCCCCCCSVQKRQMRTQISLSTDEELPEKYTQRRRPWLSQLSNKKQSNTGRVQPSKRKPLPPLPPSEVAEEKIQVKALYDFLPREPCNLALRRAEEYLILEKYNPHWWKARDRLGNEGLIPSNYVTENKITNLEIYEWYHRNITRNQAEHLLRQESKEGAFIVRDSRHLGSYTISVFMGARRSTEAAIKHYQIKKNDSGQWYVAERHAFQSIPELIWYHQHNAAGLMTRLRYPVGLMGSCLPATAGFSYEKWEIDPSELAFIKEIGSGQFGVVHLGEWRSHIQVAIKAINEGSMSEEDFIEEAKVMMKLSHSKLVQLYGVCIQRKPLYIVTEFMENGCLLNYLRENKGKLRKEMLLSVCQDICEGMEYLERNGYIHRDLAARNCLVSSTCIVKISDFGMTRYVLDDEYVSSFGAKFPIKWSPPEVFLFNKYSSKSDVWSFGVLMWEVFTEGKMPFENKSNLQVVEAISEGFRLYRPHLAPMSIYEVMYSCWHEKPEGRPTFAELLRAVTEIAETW
Method: as §1, §2

PI3K- A = biological target: T33, PI3K- A (Homo sapiens, UniProt P42336)
T33 construct: purchased Invitrogen / ThermoFisher SelectScreen
Method: as §1, §2

`COc1cc(C(N)=O)nc(-c2cccc(C#C[C@]3(O)CCN(C)C3=O)c2)c1` [NIK SMI1] was tested, and the inhibition at 1 µM (eEF-2K) was 4%, the inhibition at 1 µM (EGFR) was -11.5% and the inhibition at 1 µM (CLK2) was 25%. The inhibition at 1 µM (Abl) was 9.5%, the inhibition at 1 µM (JAK1) was -7% and the inhibition at 1 µM (GRK6) was 9%. For the same molecule, the inhibition at 1 µM (SGK1) was 5%, the inhibition at 1 µM (EphA8) was -3.5% and the inhibition at 1 µM (PKA) was -3%. For the same molecule, the inhibition at 1 µM (Syk) was -0.5%, the inhibition at 1 µM (MRCK_alpha) was 0.5% and the inhibition at 1 µM (EphB1) was 7%. The inhibition at 1 µM (Rse) was 12%, the inhibition at 1 µM (EphB3) was 5.5% and the inhibition at 1 µM (Src) was -1.5%. For the same molecule, the inhibition at 1 µM (EphA1) was 2.5%, the inhibition at 1 µM (CLK3) was 14.5% and the inhibition at 1 µM (DCAMKL2) was 6.5%. For the same molecule, the inhibition at 1 µM (FGFR3) was -3.5%, the inhibition at 1 µM (YSK1) was 39% and the inhibition at 1 µM (MST3) was 32.5%. It also gave an inhibition at 1 µM (IRR) of 5%, an inhibition at 1 µM (ErbB4) of 7% and an inhibition at 1 µM (MSSK1) of 11.5%. The inhibition at 1 µM (CSK) was 12.5%, the inhibition at 1 µM (PKG1_alpha) was 14.5% and the inhibition at 1 µM (CaMKII_beta) was 30.5%. The inhibition at 1 µM (ERK2) was 5.5%, the inhibition at 1 µM (PAK6) was 31.5% and the inhibition at 1 µM (PKC_beta1) was 1.5%. The inhibition at 1 µM (DYRK1A) was 4.5%, the inhibition at 1 µM (TXK) was 4.5% and the inhibition at 1 µM (PI3K- A) was -7.5%.
